Source: patent US9724408B2, “Compositions and methods for activating stimulator of interferon gene-dependent signalling” (ADURO BIOTECH, INC., priority 2013, dated 2017)

Experiments:
primary human PBMCs [1] = experiment: Interferon gene expression in primary human PBMCs (real-time quantitative RT-PCR); type: cell-based; details: 5 μM, Effectene transfection, 6 hrs, four donors, FIG. 8
Method: (§1) To determine the levels of IFN-α, -β and -γ induced by cyclic [G(2′,5′)pG(3′,5′)p] (ML-CDG) compared to cyclic [G(3′,5′)pG(3′,5′)p] as a signature of potency to activate innate immunity, 1×10^6 primary human PBMCs isolated from four independent human donors were incubated in a 96 well U bottom plate for 30 min at 37° C., 5% CO2 with 5 or 0.5 μM of cyclic [G(3′,5′)pG(3′,5′)p] (CDG) or cyclic [G(2′,5′)pG(3′,5′)p] (ML-CDG), 1 μg/mL of Interferon Stimulatory DNA (ISD), or 4 μg/mL of Poly (I:C) utilizing Effectene transfection reagent (Qiagen) to transfer the molecules into the PBMC. ISD (Interferon Stimulating DNA) is TLR independent (Stetston, D. B. et. al. Immunity 24, 93-103, January 2006) and signals through cGAS, and is thus STING-dependent, while Poly (I:C) can signal through both TLR3 and RIG-I pathways, and are thus STING-independent. After 30 minutes, the cells were washed and replaced with RPMI media containing 10% FBS and incubated at 37° C., 5% CO2. After 6 hrs incubation, a portion of the cells were harvested and assessed by real-time quantitative RT-PCR for gene expression of the type I cytokines interferon alpha 2 (IFNA2) and interferon beta 1 (IFNB1), and the type II cytokine gene interferon gamma (IFNG). Gene expression was determined by real-time quantitative RT-PCR using the PrimePCR RNA purification and cDNA analysis system, and run on the CFX96 gene cycler (all BioRad). Normalized expression was determined for each, which accounts for the different efficiencies of PCR amplification for the target (Etarget) and the reference (Ereference), and transforms the logarithmic scaled raw data unit Cycle Threshold (CT) into the linear unit of Normalized Expression. […] To assess correlative secreted protein levels of these cytokines, supernatants were harvested from the remaining cells after 24 hours incubation and IFN-α and -γ levels were determined by Cytometric Bead Array (CBA, BD Biosciences), while IFN-β levels were determined by ELISA (PBL).

THP1-Blue™ ISG cells = experiment: Type I interferon induction in THP1-Blue ISG reporter cells (QUANTI-Blue, A655); type: cell-based, human; details: 100 μM for 30 minutes, supernatants after overnight incubation, FIG. 7
Method: To determine the relative level of type I interferon induced in human cells by each of the native and derivative molecules as a signature of adjuvant potency, 4×10^5 THP1-Blue™ ISG cells (a human monocyte cell line transfected with an IRF-inducible secreted embryonic alkaline phosphatase reporter gene (Invivogen) which express alkaline phosphatase under the control of a promoter comprised of five IFN-stimulated response elements) were incubated with 100 μM of cyclic [G(3′,5′)pG(3′,5′)p] (CDG), cyclic [G(2′,5′)pG(3′,5′)p] (mixed linkage, or ML-CDG), or HBSS for 30 minutes at 37° C. with 5% CO2. After 30 minutes, cells were washed and plated in 96-well dish in RPMI media containing 10% FBS, and incubated at 37° C. with 5% CO2. Cell culture supernatants from each sample were collected after overnight incubation, and 20 μL of the cell culture supernatants was added to 180 μL QUANTI-Blue reagent (Invivogen) and incubated for 45 minutes to evaluate type I interferon protein levels. Readings at Absorbance 655 nm were taken every 3 minutes using a Versa Max kinetic spectrophotometer (Molecular Diagnostics).
[…]. After 30 minutes, cells were washed and plated in 96-well dish in RPMI media containing 10% FBS, and incubated at 37° C. with 5% CO2. Cell culture supernatants from each sample were collected after overnight incubation, and 20 μL of the cell culture supernatants was added to 180 μL QUANTI-Blue reagent (Invivogen) and incubated for 45 minutes. Readings at Absorbance 655 nm were taken at 15 minutes using a SpectraMax spectrophotometer (Molecular Diagnostics).
The induction of type I interferon in human cells was measured to evaluate the potency of untreated and phosphodiesterase-treated oxo, Rp monothio and Rp, Rp dithio derivatives. […]. After 30 minutes, cells were washed and plated in a 96-well dish in RPMI media containing 10% FBS, and incubated at 37° C. with 5% CO2. Cell culture supernatants from each sample were collected after 16 hr incubation, and 20 μL of the cell culture supernatants was added to 180 μL QUANTI-Blue reagent (Invivogen) and incubated for 25 minutes to evaluate type I interferon protein levels. Readings at Absorbance 655 nm were measured with a Versa Max spectrophotometer (Molecular Diagnostics).

primary human PBMCs [2] = experiment: Secreted interferon protein in primary human PBMCs (CBA, ELISA); type: cell-based; details: 24 hours, four donors
Method: as §1

OVA257-264 peptide [3] = experiment: OVA-specific CD8 T cell response in goldenticket (STING−/−) mice (IFNγ ELISpot); type: in vivo; details: 25 μg in 2% squalene-and-water with 10 μg ovalbumin, subcutaneous, day 7, FIG. 17
Method: (§2) To determine whether STING signaling is required for c[G(2′,5′)pG(3′,5′)p] (ML-CDG) to induce an OVA-specific CD8 T cell response, C57BL/6 mice (n=3 or 5) and goldenticket mice (n=3) were immunized subcutaneously with either 0 μg (no CDN) or 25 μg c[G(2′,5′)pG(3′,5′)p] (ML-CDG) formulated in 2% squalene-and-water with 10 μg ovalbumin protein. Seven days following the vaccination, blood was collected from each animal, and PBMCs were prepared. 5×10^4 PBMCs were stimulated overnight in an IFNγ ELISpot assay with media alone (unstimulated) or with 1 μM OVA257-264 peptide in the presence of 1×10^5 naïve splenocytes as feeder cells. IFNγ ELISpots were developed and quantified using a CTL plate reader and ImmunoSpot software.

OVA257-264 peptide [4] = experiment: OVA-specific CD8 T cell response after CDN-adjuvanted OVA vaccination (IFNγ ELISpot); type: in vivo, C57BL/6 mice; details: subcutaneous
Method: To determine the OVA-specific CD8 T cell response induced by the different cyclic dinucleotide molecules, C57BL/6 mice (n=5) were immunized subcutaneously with 0 μg (no CDN) or 5 μg or 25 μg [G(2′,5′)pG(3′,5′)p] (mixed linkage or ML-CDG) formulated in 2% squalene-and-water with 10 μg ovalbumin protein. Seven days following the vaccination, blood was collected from each animal, and PBMCs were prepared. 5×10^4 PBMCs were stimulated overnight in an IFNγ ELISpot assay with media alone (unstimulated) or with 1 μM OVA257-264 peptide in the presence of 1×10^5 naïve splenocytes as feeder cells. IFNγ ELISpots were developed and quantified using a CTL plate reader and ImmunoSpot software.
as §2, with “5×10^4 PBMCs were stimulated overnight in an IFNγ ELISpot assay with media alone (unstimulated) or with 1 μM OVA257-264 peptide in the presence of 1×10^5 naïve splenocytes as feeder cells.” left out

## Nc1nc2c(ncn2C2OC3COP(=O)(O)OC4C(O)C(COP(=O)(O)OC3C2O)OC4n2cnc3c(=O)[nH]c(N)nc32)c(=O)[nH]1 (stereo not shown) [ML-CDG, cyclic-[G(2′,5′)pG(3′,5′)p]]
Primary human PBMCs [1]
  gene expression for interferon gamma (IFNG): significantly higher level
  gene expression of interferon alpha 2 (IFNA2): significantly higher
  gene expression of interferon beta 1 (IFNB1): significantly higher
THP1-Blue™ ISG cells
  levels of IFN-β (type I interferon protein levels): significantly higher levels of IFN-β than cyclic [G(3′,5′)pG(3′,5′)p]
Primary human PBMCs [2]; 5 μM and 0.5 μM, CBA, FIG. 9(c)
  secretion of IFN-γ: higher levels of IFN-γ than cyclic [G(3′,5′)pG(3′,5′)p] at the same doses, and higher levels than the ISD and Poly I:C controls
Primary human PBMCs [2]; 5 μM, CBA, FIG. 9(a)
  levels of secreted IFN-α: higher than cyclic [G(3′,5′)pG(3′,5′)p] at the same or lower dose
Primary human PBMCs [2]; 5 μM, ELISA, FIG. 9(b)
  levels of IFN-β: higher than with cyclic [G(3′,5′)pG(3′,5′)p] induced levels, as well as for the ISD and Poly I:C controls
OVA257-264 peptide [3]
  OVA-specific CD8 T cell response, goldenticket mice: not significantly different than the OVA-specific responses induced by a control formulation that does not include CDN
OVA257-264 peptide [4]; 5 μg or 25 μg in 2% squalene-and-water with 10 μg ovalbumin, day 7, FIG. 16
  OVA-specific CD8 immune responses: significantly higher than responses induced by unstimulated controls and by a no CDN control group
OVA257-264 peptide [4]; 25 μg in 2% squalene-and-water with 10 μg ovalbumin, day 7, FIG. 17
  OVA-specific CD8 T cell response, wild-type mice: induces significant OVA257-264 immune responses compared to unstimulated control and a no CDN control
